Patent US6737383B1, “Herbicidal oxadiazolidines” (priority 1999, dated 2004)

Tests used:
[1] = tested on: bedstraw; experiment: Test B pre/postemergence bedstraw; type: in vivo, Galium aparine; details: Preemergence
Method in brief: (§1)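 Response is a visual 0-to-10 score relative to untreated plants, where 0 means no effect and 10 means complete control, taken twelve to sixteen days after application. Treatments went onto soil at planting and onto foliage of 1- to 4-leaf plants, using a surfactant-containing non-phytotoxic solvent.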

[2] = tested on: blackgrass; experiment: Test B pre/postemergence blackgrass; type: in vivo, Alopecurus myosuroides
Method in brief: as §1

[3] = tested on: surinam grass; experiment: Test B pre/postemergence surinam grass; type: in vivo, Brachiaria decumbens
Method in brief: as §1

[4] = tested on: cocklebur; experiment: Test B pre/postemergence cocklebur; type: in vivo, Xanthium strumarium
Method in brief: as §1

[5] = tested on: corn; experiment: Test B pre/postemergence corn; type: in vivo, Zea mays
Method in brief: as §1

[6] = tested on: crabgrass; experiment: Test B pre/postemergence crabgrass; type: in vivo, Digitaria sanguinalis
Method in brief: as §1

[7] = tested on: giant foxtail; experiment: Test B pre/postemergence giant foxtail; type: in vivo, Setaria faberii
Method in brief: as §1

[8] = tested on: morningglory; experiment: Test B pre/postemergence morningglory; type: in vivo, Ipomoea hederacea
Method in brief: as §1

[9] = tested on: pigweed; experiment: Test B pre/postemergence pigweed; type: in vivo, Amaranthus retroflexus
Method in brief: as §1

[10] = tested on: soybean; experiment: Test B pre/postemergence soybean; type: in vivo, Glycine max
Method in brief: as §1

[11] = tested on: sugar beet; experiment: Test B pre/postemergence sugar beet; type: in vivo, Beta vulgaris
Method in brief: as §1

[12] = tested on: wild oat; experiment: Test B pre/postemergence wild oat; type: in vivo, Avena fatua
Method in brief: as §1

[13] = tested on: purple nutsedge; experiment: Test B pre/postemergence purple nutsedge; type: in vivo, Cyperus rotundus
Method in brief: as §1

[14] = tested on: rice; experiment: Test B flood test rice; type: in vivo, Oryza sativa
Method in brief: (§2)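 Flood test on plants grown to the 2-leaf stage; treated plants kept in greenhouse twelve to sixteen days, then visually rated against controls on a 0 (no effect) to 10 (complete control) scale.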

[15] = tested on: smallflower flatsedge; experiment: Test B flood test smallflower flatsedge; type: in vivo, Cyperus difformis
Method in brief: as §2

[16] = tested on: duck salad; experiment: Test B flood test duck salad; type: in vivo, Heteranthera limosa
Method in brief: as §2

[17] = Postemergence, Rate 62 g/ha, scale 0 to 10, 0 is no effect, 10 is complete control
[18] = Postemergence, Rate 125 g/ha, scale of 0 to 10 where 0 is no effect and 10 is complete control
[19] = Postemergence, Rate 250 g/ha, scale of 0 to 10, 0 is no effect, 10 is complete control
[20] = Postemergence, Rate 500 g/ha, scale of 0 to 10 where 0 is no effect and 10 is complete control
[21] = Preemergence, Rate 62 g/ha, scale 0 to 10 (0 no effect, 10 complete control)
[22] = Preemergence, Rate 125 g/ha, scale of 0 to 10 where 0 is no effect and 10 is complete control
[23] = Preemergence, Rate 250 g/ha, scale 0 to 10 (0 no effect, 10 complete control)
[24] = Preemergence, Rate 500 g/ha, scale of 0 to 10 where 0 is no effect and 10 is complete control
[25] = Rate 62 g/ha, flood test species, Pre-emergence, visual evaluation after twelve to sixteen days
[26] = Rate 125 g/ha, under heading Pre-emergence, flood test species, visual evaluation after twelve to sixteen days
[27] = Rate 250 g/ha, Pre-emergence (flood test species), scale 0 to 10, 0 is no effect, 10 is complete control
[28] = Rate 500 g/ha, Pre-emergence section of Table B, 0 to 10 scale (0 no effect, 10 complete control)

SMILES: COCCn1c(=O)on(C(=O)N(c2ccccc2)C(C)C)c1=O [Compound 631]
- Bedstraw plant response rating ([1]; Rate 62 g/ha, scale 0 to 10 (0 no effect, 10 complete control)): 0
- Bedstraw plant response rating ([1]; Rate 125 g/ha, scale of 0 to 10 where 0 is no effect and 10 is complete control): 0
- Plant response rating, Bedstraw ([1]; Rate 250 g/ha, scale 0 to 10 (0 no effect, 10 complete control)): 0
- Plant response rating, Blackgrass [2, 17]: 1
- Plant response rating, Blackgrass [2, 18]: 8
- Blackgrass plant response rating [2, 19]: 6
- Plant response rating, Blackgrass [2, 20]: 9
- Blackgrass plant response rating [2, 21]: 6
- Blackgrass plant response rating [2, 22]: 7
- Plant response rating, Blackgrass [2, 23]: 9
- Plant response rating, Blackgrass [2, 24]: 10
- Plant response rating, B. signalgrass [3, 17]: 1
- Plant response rating, B. signalgrass [3, 18]: 3
- B. signalgrass plant response rating [3, 19]: 6
- Plant response rating, B. signalgrass [3, 20]: 8
- B. signalgrass plant response rating [3, 21]: 6
- B. signalgrass plant response rating [3, 22]: 7
- Plant response rating, B. signalgrass [3, 23]: 10
- Plant response rating, B. signalgrass [3, 24]: 10
- Plant response rating, Cocklebur [4, 17]: 0
- Plant response rating, Cocklebur [4, 18]: 0
- Cocklebur plant response rating [4, 19]: 0
- Plant response rating, Cocklebur [4, 20]: 2
- Cocklebur plant response rating [4, 21]: 0
- Cocklebur plant response rating [4, 22]: 0
- Plant response rating, Cocklebur [4, 23]: 0
- Plant response rating, Cocklebur [4, 24]: 2
- Plant response rating, Corn [5, 17]: 5
- Plant response rating, Corn [5, 18]: 5
- Corn plant response rating [5, 19]: 6
- Plant response rating, Corn [5, 20]: 8
- Corn plant response rating [5, 21]: 5
- Corn plant response rating [5, 22]: 6
- Plant response rating, Corn [5, 23]: 8
- Plant response rating, Corn [5, 24]: 9
- Plant response rating, Crabgrass [6, 17]: 8
- Plant response rating, Crabgrass [6, 18]: 9
- Crabgrass plant response rating [6, 19]: 9
- Plant response rating, Crabgrass [6, 20]: 9
- Crabgrass plant response rating [6, 21]: 7
- Crabgrass plant response rating [6, 22]: 7
- Plant response rating, Crabgrass [6, 23]: 9
- Plant response rating, Crabgrass [6, 24]: 9
- Plant response rating, Giant foxtail [7, 17]: 8
- Plant response rating, Giant foxtail [7, 18]: 9
- Giant foxtail plant response rating [7, 19]: 9
- Plant response rating, Giant foxtail [7, 20]: 9
- Giant foxtail plant response rating [7, 21]: 9
- Giant foxtail plant response rating [7, 22]: 9
- Plant response rating, Giant foxtail [7, 23]: 10
- Plant response rating, Giant foxtail [7, 24]: 10
- Plant response rating, Morningglory [8, 17]: 0
- Plant response rating, Morningglory [8, 18]: 4
- Morningglory plant response rating [8, 19]: 4
- Plant response rating, Morningglory [8, 20]: 10
- Morningglory plant response rating [8, 21]: 0
- Morningglory plant response rating [8, 22]: 0
- Plant response rating, Morningglory [8, 23]: 4
- Plant response rating, Morningglory [8, 24]: 7
- Plant response rating, Redroot pigweed [9, 17]: 0
- Plant response rating, Redroot pigweed [9, 18]: 0
- Redroot pigweed plant response rating [9, 21]: 7
- Redroot pigweed plant response rating [9, 22]: 9
- Plant response rating, Redroot pigweed [9, 23]: 10
- Plant response rating, Redroot pigweed [9, 24]: 10
- Plant response rating, Soybean [10, 17]: 5
- Plant response rating, Soybean [10, 18]: 5
- Soybean plant response rating [10, 19]: 8
- Soybean plant response rating [10, 21]: 2
- Soybean plant response rating [10, 22]: 5
- Plant response rating, Soybean [10, 23]: 9
- Plant response rating, Soybean [10, 24]: 9
- Plant response rating, Sugarbeets [11, 17]: 0
- Plant response rating, Sugarbeets [11, 18]: 0
- Sugarbeets plant response rating [11, 19]: 0
- Sugarbeets plant response rating [11, 21]: 0
- Sugarbeets plant response rating [11, 22]: 3
- Plant response rating, Sugarbeets [11, 23]: 4
- Plant response rating, Sugarbeets [11, 24]: 8
- Plant response rating, Wild oats [12, 17]: 0
- Plant response rating, Wild oats [12, 18]: 0
- Wild oats plant response rating [12, 19]: 1
- Wild oats plant response rating [12, 21]: 0
- Wild oats plant response rating [12, 22]: 2
- Plant response rating, Wild oats [12, 23]: 8
- Plant response rating, Wild oats [12, 24]: 9
- Plant response rating, Nutsedge [13, 17]: 0
- Plant response rating, Nutsedge [13, 18]: 0
- Nutsedge plant response rating [13, 19]: 0
- Nutsedge plant response rating [13, 21]: 0
- Nutsedge plant response rating [13, 22]: 4
- Plant response rating, Nutsedge [13, 23]: 4
- Plant response rating, Nutsedge [13, 24]: 8
- Plant response rating, Rice (0 to 10 scale, 0 is no effect, 10 is complete control) [14, 25]: 0
- Rice plant response rating (0 to 10 scale, 0 is no effect, 10 is complete control) [14, 26]: 0
- Rice plant response rating [14, 27]: 0
- Rice plant response rating [14, 28]: 0
- Plant response rating, S. Flatsedge (0 to 10 scale, 0 is no effect, 10 is complete control) [15, 25]: 0
- S. Flatsedge plant response rating (0 to 10 scale, 0 is no effect, 10 is complete control) [15, 26]: 0
- S. Flatsedge plant response rating [15, 27]: 0
- S. Flatsedge plant response rating [15, 28]: 0
- Plant response rating, Ducksalad (0 to 10 scale, 0 is no effect, 10 is complete control) [16, 25]: 0
- Ducksalad plant response rating (0 to 10 scale, 0 is no effect, 10 is complete control) [16, 26]: 0
- Ducksalad plant response rating [16, 27]: 0
- Ducksalad plant response rating [16, 28]: 0
